This is an account of results in patent US20070129426A1, “Therapeutic drugs for arthritis” (Shanghai Ambrosia Pharmaceutical Co., Ltd., priority 2003, published 2007).

The subject of test [1] is adjuvant-induced arthritis of rats. Kind of test: Adjuvant-induced arthritis of rats. The class given is in vivo, Male Wistar rats. As for the experimental part:
Experimental animal: Male Wistar rats. Body weights were about 150 g.
Method of administration: intraperitoneal injection. The dose of wedelolactone was 0.25 mg/kg or 12.5 mg/kg, prepared in 0.5% CMC. The dose of methotrexate (MTX) is 0.2 mg/kg.
Method of experiment: The animals were divided randomly into 4 groups based on their body weights. They were adapted for 3 days before experiments. The left hind planta of the rats were injected subcutaneously with 0.1 ml CFA emulsion to induce inflammation. On the Day 10, after the administration of the adjuvant, the rats were injected intraperitoneally with 5 ml/kg test compound wedelolactone for 19 continuous days. On and after the day of administration of the adjuvant, the change of thickness of the four rat paws was measured daily using a vernier caliper, and the volume of the back paw were measured using a Plethysmometer. The data from day 5, 10, 15, and 19 after administration were used for statistic analyses.

The test system of test [2] is acute inflammation of mice ear caused by dimethylbenzene. Kind of test: Mice ear inflammation caused by dimethylbenzene. The class given is in vivo, Kunming mice. The note with it: 25 mg/kg i.p., 4 days; 2 h after dimethylbenzene; n=10. The procedure: Experimental animal: Kunming mice, body weight 18-22 g.
Method of administration: intraperitoneal injection. The doses of wedelolactone were 12.5 mg/kg and 25 mg/kg, respectively; the negative control used 0.5% CMC; the positive control used ibuprofen (25 mg/kg).
Method of experiment: The animals were divided randomly into 4 groups based on their body weights, 10 mice each group. The mice were administered with the test compound for 4 continuous days. On Day 4, both sides of the right ears of the mice were daubed evenly with 50 μl dimethylbenzene 2 hours after the administration. The left ears were not treated. The mice were left for 2 hours and then sacrificed by cervical dislocation. The ear specimens were obtained by punching both ears with a 8 mm hole-puncher. The specimens were weighed and the differences between the left and the right ears were used to evaluate the effect of the compound on the inflammation.

The test system of test [3] is rat toes edema caused by carrageenan. Kind of test: Rat toes edema caused by carrageenan. The class given is in vivo, Male Wistar rats. The note with it: 25 mg/kg i.p., 7 days. As for the experimental part:
Experimental animal: Male Wistar rats. Body weights are about 200 g.
Method of administration: intraperitoneal injection. The dose of compound 1, 2, or 3 is 12 mg/kg, respectively. The negative control used 0.5% CMC; the positive control used ibuprofen, with a dose of 25 mg/kg.
Method of experiment: The animals were divided randomly into […] based on their body weights, […]. The 4 groups were negative control group, positive control group, compound 1 group, compound 2 group, and compound 3 group. The animals were administered daily for 7 continuous days. On Day 7, the aponeurosis of right hind toes were injected with 0.1 ml of 1% carrageenan 30 minutes after the administration. The edema of the toes at different time points after induction of the inflammation was then measured.

Setting [4] is: 0.2 mg/kg i.p., day 5 after administration.
[5] abbreviates: 0.2 mg/kg i.p., day 5 after administration, adjuvant-injected paw.
Setting [6] is: 0.2 mg/kg i.p., day 10 after administration.
[7] abbreviates: 0.2 mg/kg i.p., day 10 after administration, adjuvant-injected paw.
Where [8] appears, read: 0.2 mg/kg i.p., day 15 after administration.
[9] abbreviates: 0.2 mg/kg i.p., day 15 after administration, adjuvant-injected paw.
[10] abbreviates: 0.2 mg/kg i.p., day 19 after administration.
[11] abbreviates: 0.2 mg/kg i.p., day 19 after administration, adjuvant-injected paw.

Each structure is given as a SMILES string.

With `CN(Cc1cnc2nc(N)nc(N)c2n1)c1ccc(C(=O)N[C@@H](CCC(=O)O)C(=O)O)cc1` [MTX, methotrexate, reference compound], in test [1] (setting [4]), the “Left front paw thickness, Day 5” value amounted to 4.14 ± 0.14 mm; the “Right front paw thickness, Day 5” value is reported as 4.00 ± 0.10 mm; the “Right hind paw thickness, Day 5” value amounted to 4.89 ± 0.23 mm; the “Right hind paw volume, Day 5” value was 1.09 ± 0.07 mL. Further, in test [1] (setting [5]), the “Left hind paw thickness, Day 5” value is recorded as 6.96 ± 1.97 mm and the “Left hind paw volume, Day 5” value turned out to be 1.68 ± 0.32 mL. In test [1] (setting [6]), the “Left front paw thickness, Day 10” value amounted to 3.96 ± 0.10 mm; the “Right front paw thickness, Day 10” value amounted to 3.84 ± 0.10 mm; the “Right hind paw thickness, Day 10” value worked out at 4.87 ± 0.18 mm; the “Right hind paw volume, Day 10” value turned out to be 1.00 ± 0.10 mL. Besides, in test [1] (setting [7]), the “Left hind paw thickness, Day 10” value is 7.44 ± 1.42 mm and the “Left hind paw volume, Day 10” value was determined as 1.73 ± 0.23 mL. Further, in test [1] (setting [8]), the “Left front paw thickness, Day 15” value came to 4.04 ± 0.10 mm; the “Right front paw thickness, Day 15” value is reported as 4.07 ± 0.13 mm; the “Right hind paw thickness, Day 15” value came to 5.04 ± 0.28 mm; the “Right hind paw volume, Day 15” value is 1.17 ± 0.11 mL. In test [1] (setting [9]), the “Left hind paw thickness, Day 15” value is on record as 7.86 ± 1.36 mm and the “Left hind paw volume, Day 15” value worked out at 1.93 ± 0.34 mL. Further, in test [1] (setting [10]), the “Left front paw thickness, Day 19” value was 4.09 ± 0.11 mm; the “Right front paw thickness, Day 19” value amounted to 4.00 ± 0.12 mm; the “Right hind paw thickness, Day 19” value stood at 4.90 ± 0.08 mm; the “Right hind paw volume, Day 19” value was determined as 1.19 ± 0.09 mL. Moreover, in test [1] (setting [11]), the “Left hind paw thickness, Day 19” value came to 7.51 ± 1.40 mm and the “Left hind paw volume, Day 19” value turned out to be 1.84 ± 0.26 mL. In addition, the “Primary inflammation of the left foot and secondary inflammation of the right foot (FIG. 2)” value in test [1] (treated with MTX) was “alleviated”.

With `CC(C)Cc1ccc(C(C)C(=O)O)cc1` (stereo not shown) [ibuprofen], in test [2], the “Difference (mg) between left and right ear” value is listed as 11.4 ± 3.6 mg. For the same compound, the “Edema index (ml) after induction of the inflammation, 1 h” value in test [3] (1 h) was 0.31 ± 0.06 mL. In addition, in test [3] (2 h), the “Edema index (ml) after induction of the inflammation, 2 h” value came out at 0.38 ± 0.10 mL. Further, in test [3] (4 h), the “Edema index (ml) after induction of the inflammation, 4 h” value was found to be 0.42 ± 0.11 mL. The “Edema index (ml) after induction of the inflammation, 6 h” value in test [3] (6 h) stood at 0.39 ± 0.06 mL. In test [3] (24 h), the “Edema index (ml) after induction of the inflammation, 24 h” value came out at 0.37 ± 0.07 mL.
